Converted amounts (≈) assume the structure as drawn.
Tests used:
Type in all cases: functional
786-0 = test: Cytotoxicity against human 786-0 cells by sulforhodamine B assay
PC-3 = test: Cytotoxicity against human PC3 cells by sulforhodamine B assay
HT-29 = test: Cytotoxicity against human HT-29 cells by sulforhodamine B assay
P388 = test: Cytotoxicity against mouse P388 cells at 1 mg/ml relative to control

SMILES | GI50 (786-0) [µg/mL] | GI50 (PC-3) [µg/mL] | GI50 (HT-29) [µg/mL] | T/C (P388) [%]
COc1ccc(C[C@H]2C(=O)N[C@@H](C)C(=O)N(C)[C@@H]3C(=O)N(C)[C@@H](Cc4ccc(OC)c(c4)Oc4ccc(cc4)[C@@H]3O)C(=O)N[C@H](C)C(=O)N[C@@H](CO)C(=O)N2C)cc1 | 1.14 (≈ 1.42 µM) | 0.26 (≈ 0.324 µM) | 1.8 (≈ 2.24 µM) | 
COc1ccc(C[C@H]2C(=O)N[C@@H](C)C(=O)N(C)[C@@H]3C(=O)N(C)[C@@H](Cc4ccc(OC)c(c4)Oc4ccc(cc4)[C@@H]3O)C(=O)N[C@H](C)C(=O)N[C@@H](C)C(=O)N2C)cc1 | 0.07 (≈ 0.089 µM) | 0.06 (≈ 0.0763 µM) | 0.07 (≈ 0.089 µM) | 134
COc1cccc2c1C(=O)c1c(O)c3c(c(O)c1C2=O)C[C@@](O)(C(=O)CO)C[C@@H]3O[C@H]1C[C@H](N)[C@H](O)[C@H](C)O1 [DOXORUBICIN] | 0.02 (≈ 0.0368 µM) | 0.35 (≈ 0.644 µM) | 0.27 (≈ 0.497 µM) | 

— ChEMBL document CHEMBL4477163, “Rubiaceae-Type Cyclopeptides from Galianthe thalictroides” (2016)
